Data set [1] concerns the target T1, 3',5'-cyclic-AMP phosphodiesterase 4B (Homo sapiens, UniProt Q07343). As to the kind of experiment: Inhibition of recombinant human PDE4B using cAMP as substrate after 30 mins.
Data set [2] concerns the target T1, 3',5'-cyclic-AMP phosphodiesterase 4B. As to the kind of experiment: Inhibition of recombinant human PDE4B using cAMP as substrate at 3 uM after 30 mins.
Data set [3] shares this target. Kind of data set: Inhibition of recombinant human PDE4B using cAMP as substrate at 1 uM after 30 mins.
For the next data set, the system named is Splenocyte. Kind of data set: Inhibition of LPS-induced TNFalpha production in Balb/c mouse splenocytes after 18 to 24 hrs by AlphaLISA assay. It counts as functional, cell-based. For orientation: Bead proximity is the source of the signal in Alpha formats.
Data set [4] deals with Mus musculus. Kind of data set: Inhibition of LPS-induced pulmonary neutrophilia in BALB/c mouse assessed as reduction of neutrophils level in bronchoalveolar lavage fluid at 1 mg/kg administered intratracheally 30 mins before LPS challenge measured after 4 to 5 hrs. It counts as functional. Conditions: route endotracheal.
Data set [5] has as its target T1, 3',5'-cyclic-AMP phosphodiesterase 4B. Kind of data set: Inhibition of recombinant human PDE4B using cAMP as substrate at 10 uM after 30 mins.
Data set [6] in a line: Cmax in mouse at 10 mg/kg, ip. The class given is ADME, organism-based. Conditions: in vivo. On the set-up: dose 10 mg/kg, route intraperitoneal.
Data set [7] can be described thus: Octanol-phosphate buffered saline distribution coefficient, log D of the compound at pH 7.4. It counts as physicochemical.
The subject of data set [8] is Mus musculus. As to the kind of experiment: Inhibition of LPS-induced pulmonary neutrophilia in ip dosed BALB/c mouse assessed as reduction of neutrophils level in bronchoalveolar lavage fluid administered 30 mins before LPS challenge measured after 4 to 5 hrs. It counts as functional. The following applies: read-out: ID50 (the source's name).
The nature of data set [9]: Metabolic stability of the compound in mouse liver microsomes after 30 mins. The class given is ADME, Microsome. The following applies: read-out: Stability. In general terms: Microsomes from liver hold many membrane-bound enzymes, among them those of drug oxidation.
Data set [10] is described as follows: Terminal half life in mouse at 10 mg/kg, ip. The following applies: in vivo, read-out: beta t1/2 (converted). Details: dose 10 mg/kg, route intraperitoneal. It counts as ADME, organism-based.
Data set [11] can be described thus: AUC in mouse at 10 mg/kg, ip. It counts as ADME, organism-based. Details: dose 10 mg/kg, route intraperitoneal. Conditions: plasma.

Here are results for 26 molecules from ChEMBL document CHEMBL2439955, “Synthesis and biological evaluation of 5-carbamoyl-2-phenylpyrimidine derivatives as novel and potent PDE4 inhibitors” (Bioorg Med Chem, 2013).

T1 sequence (Q07343 whole entry): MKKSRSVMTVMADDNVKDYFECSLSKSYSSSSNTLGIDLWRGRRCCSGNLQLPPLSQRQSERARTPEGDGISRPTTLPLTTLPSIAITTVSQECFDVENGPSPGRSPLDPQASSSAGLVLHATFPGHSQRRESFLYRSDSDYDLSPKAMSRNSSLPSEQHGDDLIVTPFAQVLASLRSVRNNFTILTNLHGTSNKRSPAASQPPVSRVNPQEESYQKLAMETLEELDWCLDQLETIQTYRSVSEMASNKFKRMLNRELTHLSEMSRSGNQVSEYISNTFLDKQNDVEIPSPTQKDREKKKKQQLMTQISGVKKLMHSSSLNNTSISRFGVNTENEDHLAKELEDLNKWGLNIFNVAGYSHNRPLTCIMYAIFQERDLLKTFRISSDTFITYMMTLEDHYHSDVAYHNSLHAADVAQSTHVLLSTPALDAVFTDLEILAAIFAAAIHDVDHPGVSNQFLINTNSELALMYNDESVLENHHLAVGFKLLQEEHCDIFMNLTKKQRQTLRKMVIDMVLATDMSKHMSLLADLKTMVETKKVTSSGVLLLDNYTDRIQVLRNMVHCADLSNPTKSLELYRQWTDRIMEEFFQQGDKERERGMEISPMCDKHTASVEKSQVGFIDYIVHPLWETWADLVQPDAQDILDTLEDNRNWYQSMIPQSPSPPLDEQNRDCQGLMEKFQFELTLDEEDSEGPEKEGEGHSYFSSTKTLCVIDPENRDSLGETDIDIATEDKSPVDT

As for `CC(C)(C)CNC(=O)Cc1ccc(Nc2nc(NN3CCCCC3)ncc2C(N)=O)cc1`, in data set [1], the IC50 was found to be 6500 nM.
`O=C(O)Cc1ccc(Nc2nc(-c3ccccc3)ncc2C(=O)NO)cc1`: the inhibition in [2] is 42%.
Turning to `CC(C)(C)CNC(=O)Cc1ccc(Nc2nc(-c3ccsc3)ncc2C(N)=O)cc1`, the inhibition in [3] was determined as 18%.
As to `NC(=O)c1cnc(-c2ccccc2)nc1Nc1ccc(CC(=O)NCC2CC2)cc1`, the IC50 in [1] is 16 nM; in the data set with Splenocyte it was 18 nM.
With `CC(C)(C)NC(=O)Cc1ccc(Nc2nc(-c3ccccc3)ncc2C(N)=O)cc1`, the IC50 in [1] stood at 110 nM; with Splenocyte it was 49 nM.
The corresponding values for `CC(C)(C)CNC(=O)Cc1ccc(Nc2nc(N3CCCC3)ncc2C(N)=O)cc1` are 13 nM and 3.8 nM.
In the case of `CS(=O)(=O)NC(=O)Cc1ccc(Nc2nc(-c3ccccc3)ncc2C(N)=O)cc1`, the half-maximal inhibitory concentration (IC50) is 490 nM in data set [1] and 4800 nM in the data set on Splenocyte.
The corresponding values for `CN(C)c1ncc(C(N)=O)c(Nc2ccc(CC(=O)NCC(C)(C)C)cc2)n1` are 16 nM and 7.1 nM.
With `CC(C)(C)CNC(=O)Cc1ccc(Nc2nc(-c3ccc4[nH]ccc4c3)ncc2C(N)=O)cc1`, the IC50 in [1] was found to be 8.2 nM; with Splenocyte, 840 nM.
Taken in the same sequence, the figures for `NC(=O)Cc1ccc(Nc2nc(-c3ccccc3)ncc2C(N)=O)cc1` were 120 nM and 74 nM.
On to `CC(C)CNC(=O)Cc1ccc(Nc2nc(-c3ccccc3)nc3c2C(=O)NCC3)cc1`, for which the half-maximal inhibitory concentration (IC50) in [1] was determined as 7.3 nM; in the data set with Splenocyte, 0.21 nM. For the same molecule, in the data set with Mus musculus [4], the inhibition in vivo at 1 mg/kg is 41%.
With `NC(=O)c1cnc(-c2ccccc2)nc1Nc1ccc(CC(=O)NO)cc1`, the half-maximal inhibitory concentration (IC50) in data set [1] was determined as 7.1 nM; in the data set on Splenocyte it was 43 nM.
On to `CN(C)C(=O)c1cnc(-c2ccccc2)nc1Nc1ccc(CC(=O)O)cc1`, for which the inhibition in data set [5] is 8%.
Take `O=C(O)Cc1ccc(Nc2nc(-c3ccccc3)nc3c2C(=O)NCC3)cc1`: the IC50 in [1] came to 47 nM; in the data set with Splenocyte, 460 nM.
As to `CC(C)(C)CNC(=O)Cc1ccc(Nc2nc(-c3ccccc3)ncc2C(N)=O)cc1`, the IC50 in [1] was 8.3 nM; with Splenocyte, 3 nM. In data set [6], the Cmax was found to be 1490 ng/mL. In [7], this molecule showed a pH-dependent lipophilicity (logD) of 4.9. Also, in the data set on Mus musculus [8], the ED50 came to 16 mg/kg. The remaining at 0.5 h in [9] turned out to be 52%. The half-life in data set [10] is 3.2 h. Besides, the area under the curve (AUC) in data set [11] came to 3990 ng·h/mL.
`CCCNC(=O)Cc1ccc(Nc2nc(-c3ccccc3)ncc2C(N)=O)cc1`: the half-inhibitory concentration (IC50) in data set [1] is 120 nM; in the data set with Splenocyte, 47 nM.
On to `CC(C)CNC(=O)Cc1ccc(Nc2nc(-c3ccccc3)ncc2C(N)=O)cc1`, for which the IC50 was found to be 11 nM in data set [1] and 12 nM in the data set with Splenocyte.
For `NC(=O)c1cnc(-c2ccccc2)nc1Nc1ccc(CC(=O)O)cc1`, the IC50 in [1] was found to be 200 nM; in the data set with Splenocyte, 690 nM.
Turning to `O=C(Nc1c(Cl)cncc1Cl)c1ccc(OC(F)F)c(OCC2CC2)c1` [ROFLUMILAST], in the data set on Splenocyte, the IC50 came out at 1.2 nM. Also, the inhibition in vivo at 1 mg/kg with Mus musculus [4] came out at 47%.
Consider `C=C(C)c1ncc(C(N)=O)c(Nc2ccc(CC(=O)NCC(C)(C)C)cc2)n1`, for which the half-inhibitory concentration (IC50) in data set [1] worked out at 3.7 nM; with Splenocyte, 9.6 nM.
In the case of `CSc1nc(-c2ccccc2)nc(Nc2ccc(CC(=O)O)cc2)c1C(N)=O`, the IC50 in [1] worked out at 2000 nM.
Take `CC(C)(C)CNC(=O)Cc1ccc(Nc2nc(-c3ccoc3)ncc2C(N)=O)cc1`: the results for the IC50 (in data set [1]; in the data set on Splenocyte) were 11 nM and 1000 nM, respectively.
The corresponding values for `CC(C)(C)CNC(=O)Cc1ccc(Nc2nc(-c3cccnc3)ncc2C(N)=O)cc1` are 29 nM and 23 nM.
With `CNC(=O)c1cnc(-c2ccccc2)nc1Nc1ccc(CC(=O)O)cc1`, the concentration for half-maximal inhibition (IC50) in [1] stood at 8200 nM.
Consider `Cc1nc(-c2ccccc2)nc(Nc2ccc(CC(=O)O)cc2)c1C(N)=O`, for which the half-inhibitory concentration (IC50) in [1] was 4000 nM.
With `CC(C)(C)CNC(=O)Cc1ccc(Nc2nc(-c3cncnc3)ncc2C(N)=O)cc1`, in [1], the 50% inhibitory concentration (IC50) stood at 110 nM.

What is called IC50 is the concentration needed to halve the response being measured. By inhibition is commonly meant how much of the control response was suppressed. By inhibition in vivo is commonly meant the relative decrease from the control value, in per cent. Broadly, the Cmax is the highest concentration seen after dosing. Broadly, the logD is lipophilicity at a set pH, counting ionised and neutral species. Usually AUC stands for the area under the concentration-time curve, a measure of exposure. High values mean high exposure, low ones low exposure.
